Assay results taken from patent US20230295200A1 (REGENTS OF THE UNIVERSITY OF MICHIGAN, priority 2022, published 2023).

Experiments:
STAT6 protein = target: T1, STAT6 protein (Homo sapiens, UniProt P42226); assay: Fluorescence polarization (FP) binding assay, STAT6; settings: FP competition, 5 nM fluorescein-labeled tracer, 200 nM protein, PBS pH7.4; read-out: Binding STAT6
T1 sequence (P42226 1-847): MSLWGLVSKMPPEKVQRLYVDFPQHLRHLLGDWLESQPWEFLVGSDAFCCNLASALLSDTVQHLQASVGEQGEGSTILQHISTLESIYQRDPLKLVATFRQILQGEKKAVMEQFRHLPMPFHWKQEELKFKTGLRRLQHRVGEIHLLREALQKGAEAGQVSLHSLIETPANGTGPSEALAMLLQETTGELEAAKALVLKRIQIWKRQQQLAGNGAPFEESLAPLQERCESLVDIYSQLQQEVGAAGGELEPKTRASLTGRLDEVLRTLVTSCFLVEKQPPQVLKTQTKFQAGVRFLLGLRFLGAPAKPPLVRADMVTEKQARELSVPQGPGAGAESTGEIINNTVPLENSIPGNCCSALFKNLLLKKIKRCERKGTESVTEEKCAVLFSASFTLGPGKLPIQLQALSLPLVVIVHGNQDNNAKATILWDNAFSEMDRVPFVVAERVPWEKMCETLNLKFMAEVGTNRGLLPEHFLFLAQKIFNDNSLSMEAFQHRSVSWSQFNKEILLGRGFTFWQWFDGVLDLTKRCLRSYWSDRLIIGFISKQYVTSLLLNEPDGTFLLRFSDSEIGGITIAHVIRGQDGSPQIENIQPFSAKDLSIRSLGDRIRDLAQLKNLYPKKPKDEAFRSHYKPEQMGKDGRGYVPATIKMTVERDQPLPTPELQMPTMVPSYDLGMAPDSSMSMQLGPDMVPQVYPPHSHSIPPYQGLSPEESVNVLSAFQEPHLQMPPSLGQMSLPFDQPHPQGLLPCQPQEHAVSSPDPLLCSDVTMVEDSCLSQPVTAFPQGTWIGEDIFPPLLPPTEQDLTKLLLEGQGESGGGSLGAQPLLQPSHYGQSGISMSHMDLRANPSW
Method in brief: (§1)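 Polarization read after 1 h equilibration at room temperature (preceded by 15 min shaking) of 200 nM STAT5 and/or STAT6 with 5 nM fluorescein tracer. Buffer: PBS pH 7.4 plus 0.01% BGG, 0.01% Tween-20, 2 mM DTT; inhibition constants derived by nonlinear fitting.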

STAT5A = target: T2, STAT5A (Homo sapiens, UniProt P42229); assay: Fluorescence polarization (FP) binding assay, STAT5A; settings: FP competition, 5 nM fluorescein-labeled tracer, 200 nM protein, PBS pH7.4
T2 sequence (P42229 1-794): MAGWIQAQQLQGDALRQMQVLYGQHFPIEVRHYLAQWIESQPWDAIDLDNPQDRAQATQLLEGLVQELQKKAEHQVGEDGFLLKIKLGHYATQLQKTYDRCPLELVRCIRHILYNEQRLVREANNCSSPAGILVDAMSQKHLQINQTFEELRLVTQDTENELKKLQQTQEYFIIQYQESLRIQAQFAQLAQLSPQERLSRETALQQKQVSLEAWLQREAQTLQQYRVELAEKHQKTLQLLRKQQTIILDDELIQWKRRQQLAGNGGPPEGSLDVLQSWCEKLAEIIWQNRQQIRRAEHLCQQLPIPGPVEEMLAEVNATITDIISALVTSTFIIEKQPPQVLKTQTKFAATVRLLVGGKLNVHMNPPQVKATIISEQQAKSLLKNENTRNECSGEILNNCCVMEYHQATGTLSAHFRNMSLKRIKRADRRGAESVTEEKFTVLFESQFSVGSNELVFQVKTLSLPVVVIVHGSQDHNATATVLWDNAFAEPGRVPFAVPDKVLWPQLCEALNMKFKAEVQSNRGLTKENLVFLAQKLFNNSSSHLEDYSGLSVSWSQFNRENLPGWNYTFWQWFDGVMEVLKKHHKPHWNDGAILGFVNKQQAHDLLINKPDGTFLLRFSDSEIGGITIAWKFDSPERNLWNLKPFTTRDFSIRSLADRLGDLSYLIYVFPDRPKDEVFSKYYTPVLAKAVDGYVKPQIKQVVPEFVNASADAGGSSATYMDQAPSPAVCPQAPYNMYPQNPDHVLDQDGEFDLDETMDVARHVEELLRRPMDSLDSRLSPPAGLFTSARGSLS
Method in brief: as §1

Ki (STAT6 protein) | Ki (STAT5A) | Structure (SMILES)
1 to 10 µM | > 10 µM | CC(C)(C)[C@H](NC(=O)c1cc2cc(C(F)(F)P(=O)(O)O)ccc2[nH]1)C(=O)N1CCC[C@H]1C(=O)NC1CCc2ccccc21 (stereo partly drawn) [Compound 12, ((2-(((2S)-1-((2S)-2-((2,3-dihydro-1H-inden-1-yl)carbamoyl)pyrrolidin-1-yl)-3,3-dimethyl-1-oxobutan-2-yl)carbamoyl)-1H-indol-5-yl)difluoromethyl)phosphonic acid]
1 to 10 µM | > 10 µM | CC(C)(C)[C@H](NC(=O)c1cc2cc(C(F)(F)P(=O)(O)O)ccc2s1)C(=O)N1CCCCC[C@H]1C(=O)N1Cc2ccccc2C1 [Compound 187, (difluoro(2-(((S)-1-((S)-2-(isoindoline-2-carbonyl)azepan-1-yl)-3,3-dimethyl-1-oxobutan-2-yl)carbamoyl)benzo[b]thiophen-5-yl)methyl)phosphonic acid]
1 to 10 µM | > 10 µM | CC(C)(C)[C@H](NC(=O)c1cc2cc(C(F)(F)P(=O)(O)O)ccc2s1)C(=O)N1CCC[C@H]1C(=O)N1CCOC(Cc2ccccc2)C1 (stereo partly drawn) [Compound 133, ((2-(((2S)-1-((2S)-2-(2-benzylmorpholine-4-carbonyl)pyrrolidin-1-yl)-3,3-dimethyl-1-oxobutan-2-yl)carbamoyl)benzo[b]thiophen-5-yl)difluoromethyl)phosphonic acid]
1 to 10 µM | > 10 µM | CC(C)(C)[C@H](NC(=O)c1cc2cc(C(F)(F)P(=O)(O)O)ccc2s1)C(=O)N1CCC[C@H]1C(=O)N[C@H]1CCc2ccccc2C1 [Compound 214, ((2-(((S)-3,3-dimethyl-1-oxo-1-((S)-2-(((S)-1,2,3,4-tetrahydronaphthalen-2-yl)carbamoyl)pyrrolidin-1-yl)butan-2-yl)carbamoyl)benzo[b]thiophen-5-yl)difluoromethyl)phosphonic acid]
> 10 µM | > 10 µM | NCCCC[C@H](NC(=O)/C=C/c1ccc(C(F)(F)P(=O)(O)O)cc1)C(=O)N1CCC[C@H]1C(=O)N1CCc2ccccc2C1 [Compound 8, ((4-((E)-3-(((S)-6-amino-1-oxo-1-((S)-2-(1,2,3,4-tetrahydroisoquinoline-2-carbonyl)pyrrolidin-1-yl)hexan-2-yl)amino)-3-oxoprop-1-en-1-yl)phenyl)difluoromethyl)phosphonic acid]
0.1 to 1 µM | 1 to 10 µM | CC(C)(C)[C@H](NC(=O)c1cc2cc(C(F)(F)P(=O)(O)O)ccc2s1)C(=O)N1CCC[C@H]1C(=O)N1CCOC(c2ccc(F)c(Cl)c2)C1 (stereo partly drawn) [Compound 113, ((2-(((2S)-1-((2S)-2-(2-(3-chloro-4-fluorophenyl)morpholine-4-carbonyl)pyrrolidin-1-yl)-3,3-dimethyl-1-oxobutan-2-yl)carbamoyl)benzo[b]thiophen-5-yl)difluoromethyl)phosphonic acid]
> 10 µM | > 10 µM | CC(C)(C)[C@H](NC(=O)c1cc2cc(C(F)(F)P(=O)(O)O)ccc2s1)C(=O)N1Cc2ccccc2CC1C(=O)N1Cc2ccccc2C1 (stereo partly drawn) [Compound 193, (difluoro(2-(((2S)-1-(3-(isoindoline-2-carbonyl)-3,4-dihydroisoquinolin-2(1H)-yl)-3,3-dimethyl-1-oxobutan-2-yl)carbamoyl)benzo[b]thiophen-5-yl)methyl)phosphonic acid]
1 to 10 µM | 0.1 to 1 µM | CC(C)(C)[C@H](NC(=O)c1cc2cc(C(F)(F)P(=O)(O)O)ccc2s1)C(=O)N1Cc2ccccc2CC1C(=O)Nc1ncc(-c2ccccc2)s1 (stereo partly drawn) [Compound 194, ((2-(((2S)-3,3-dimethyl-1-oxo-1-(3-((5-phenylthiazol-2-yl)carbamoyl)-3,4-dihydroisoquinolin-2(1H)-yl)butan-2-yl)carbamoyl)benzo[b]thiophen-5-yl)difluoromethyl)phosphonic acid]
> 10 µM | > 10 µM | CC(C)(C)[C@H](NC(=O)/C=C/c1ccc(C(F)(F)P(=O)(O)O)cc1)C(=O)N1CCC[C@H]1c1nc(-c2ccccc2)cs1 [Compound 20, ((4-((E)-3-(((S)-3,3-dimethyl-1-oxo-1-((S)-2-(4-phenylthiazol-2-yl)pyrrolidin-1-yl)butan-2-yl)amino)-3-oxoprop-1-en-1-yl)phenyl)difluoromethyl)phosphonic acid]
1 to 10 µM | 0.1 to 1 µM | CCOC(=O)CO[C@@H]1C[C@@H](C(=O)Nc2ncc(-c3ccccc3)s2)N(C(=O)[C@@H](NC(=O)c2cc3cc(C(F)(F)P(=O)(O)O)ccc3s2)C(C)(C)C)C1 [Compound 206, ((2-(((S)-1-((2S,4R)-4-(2-ethoxy-2-oxoethoxy)-2-((5-phenylthiazol-2-yl)carbamoyl)pyrrolidin-1-yl)-3,3-dimethyl-1-oxobutan-2-yl)carbamoyl)benzo[b]thiophen-5-yl)difluoromethyl)phosphonic acid]
1 to 10 µM | 0.1 to 1 µM | CC(C)(C)[C@H](NC(=O)c1cc2cc(C(F)(F)P(=O)(O)O)ccc2s1)C(=O)N1CCCC[C@H]1C(=O)Nc1ncc(-c2ccccc2)s1 [Compound 182, ((2-(((S)-3,3-dimethyl-1-oxo-1-((S)-2-((5-phenylthiazol-2-yl)carbamoyl)piperidin-1-yl)butan-2-yl)carbamoyl)benzo[b]thiophen-5-yl)difluoromethyl)phosphonic acid]
1 to 10 µM | > 10 µM | CC(C)(C)[C@H](NC(=O)c1cc2cc(C(F)(F)P(=O)(O)O)ccc2[nH]1)C(=O)N1CCC[C@H]1C(=O)N[C@@H]1C[C@H]1c1ccccc1 [Compound 16, ((2-(((S)-3,3-dimethyl-1-oxo-1-((S)-2-(((1R,2S)-2-phenylcyclopropyl)carbamoyl)pyrrolidin-1-yl)butan-2-yl)carbamoyl)-1H-indol-5-yl)difluoromethyl)phosphonic acid]
1 to 10 µM | > 10 µM | CC(C)(C)[C@H](NC(=O)c1cc2cc(C(F)(F)P(=O)(O)O)ccc2[nH]1)C(=O)N1CCC[C@H]1C(=O)N[C@H]1CCCc2ccccc21 [Compound 11, ((2-(((S)-3,3-dimethyl-1-oxo-1-((S)-2-(((S)-1,2,3,4-tetrahydronaphthalen-1-yl)carbamoyl)pyrrolidin-1-yl)butan-2-yl)carbamoyl)-1H-indol-5-yl)difluoromethyl)phosphonic acid]
0.1 to 1 µM | 1 to 10 µM | CC(C)(C)[C@H](NC(=O)c1cc2cc(C(F)(F)P(=O)(O)O)ccc2s1)C(=O)N1Cc2ccccc2[C@H]1C(=O)N1CC[C@@H](c2ccccc2)C1 [Compound 198, ((2-(((S)-3,3-dimethyl-1-oxo-1-((S)-1-((S)-3-phenylpyrrolidine-1-carbonyl)isoindolin-2-yl)butan-2-yl)carbamoyl)benzo[b]thiophen-5-yl)difluoromethyl)phosphonic acid]
1 to 10 µM | > 10 µM | CC(C)(C)[C@H](NC(=O)c1cc2cc(C(F)(F)P(=O)(O)O)ccc2s1)C(=O)N1CCC[C@H]1C(=O)N1CCOC(c2ccc(F)cc2F)C1 (stereo partly drawn) [Compound 110, ((2-(((2S)-1-((2S)-2-(2-(2,4-difluorophenyl)morpholine-4-carbonyl)pyrrolidin-1-yl)-3,3-dimethyl-1-oxobutan-2-yl)carbamoyl)benzo[b]thiophen-5-yl)difluoromethyl)phosphonic acid]
